Experimental data: patent US10265374B2, “Occidiofungin formations and uses thereof” (MISSISSIPPI STATE UNIVERSITY, priority 2014, dated 2019)
Values joined by “and” are separate entries in the source; they are usually repeats but may differ in a detail not shown here. Identical values can stand only once. “Also recorded” adds a separate entry of the source.

What was measured:
[1] = tested on: OVCAR8; experiment: In vitro toxicity screening (CellTiter-Blue cell viability, 48 hours); format: cell-based, human
Excerpt: (§1) Cancer cell lines, OVCAR8 (Center for Cancer Research (OVAR.8; Sample ID 25)), SW1088 (ATCC-HTB-12), and Toledo (ATCC CRL-2631), and normal human neonatal dermal fibroblasts cell line (ATCC-PCS-201-010) were passaged and prepped as previously described (See References 15-17). OVCAR8, SW1088, and Toledo2631 are ovarian, brain, and B-cell lymphoma cancer cell lines, respectively. This panel of cell lines was chosen based, in part, on their being from very different cancer types in order to discern whether occidiofungin would have a broad spectrum activity towards cancer cell lines of vastly different parental organ/cell types. OVCAR8 cells are widely used in the field of cancer therapeutic research as a panel representative of ovarian cancer in screening experiments for identifying both ovarian-specific and non-specific (i.e., anti-neoplastic activity on multiple cancer cell types) therapeutic agents (See References 28-30). Similarly, SW1088 cells are widely used in the field of cancer therapeutic research as a panel representative of glioma (the most common brain cancer) in screening experiments for identifying both glioma-specific and non-specific therapeutic agents (See References 31-32). Toledo 2631 cells are derived from lymphoma cells, and are used in the field of cancer therapeutic research for identifying lymphoma-specific and non-specific therapeutic agents (See, e.g., Reference 33). […] Cell counts per plate were calculated to be approximately 50,000 cells/mL. A 10× stock solution of occidiofungin was prepared at 65 μM concentration in 10% dimethyl sulfoxide (DMSO). Two-fold serial dilutions on a 96 well plate were set up in triplicate with starting concentration of 6.5 μM and a final concentration of 3 nM. Bortezomib was used as a comparator for toxicity against human fibroblast and was serially diluted two-fold starting at a concentration of 5 μM and ending at 2.5 nM. Bortezomib is used clinically against myeloma and lymphoma cancers in patients refractory against other chemotherapeutics (See References 18, 19). Furthermore, bortezomib has shown efficacy against a variety of solid tumors and cancer cell lines, making this an appropriate comparison molecule in the panel of cell lines chosen (See References 34-35). The plates were then incubated at 37° C. in 5% CO2 for 48 hours. After 48 hours, cell viability was monitored using CellTiter-Blue (Promega) cell viability assay by measuring the fluorescence emission of a redox activated dye (579EX/584EM) using a POLARstar Omega microplate reader (BMG Labtech).

[2] = tested on: Toledo (ATCC CRL-2631); experiment: as above; format: cell-based, human; settings: Toledo CRL-2631 B-cell lymphoma cell line, mean of three independent experiments, read-out: TC50 (the source's name)
Excerpt: as §1

[3] = tested on: SW1088; experiment: as above; format: cell-based, human; settings: SW1088 astrocytoma brain cancer cell line, mean of three independent experiments, read-out: TC50 (the source's name)
Excerpt: as §1

[4] = Single dose toxicity study, i.v. occidiofungin in 1.5% hydroxy propyl-beta-cyclodextrin/PBS; format: in vivo, mice
Method: Female BALB/c mice at age of 6-8 weeks old were used. These mice were purchased from Harlan and allowed to acclimate at least 2 weeks after arrival. They were housed on a 12 hour light-dark cycle in a temperature and humidity controlled animal facility that is accredited by the American Association for Accreditation of Laboratory Animal Care. Animal care and use were in accord with NIH Guidelines and Texas A&M University regulations. Protocols used for the mice models were done in accordance to the methods reported by Luster et al. (See Reference 12).
Occidiofungin was produced as previously described and aliquoted and lyophilized into 100 μg quantities in 1.8 mL centrifuge tubes. […] Mice (5 mice per group) were given occidiofungin dissolved in 1.5% hydroxy propyl-beta-cylcodextrin suspended in phosphate buffered saline (PBS). […] For the experiments, occidiofungin was administered by intravenous (i.v.) injection into the tail vein at a single dose at 5 mg/kg of body weight. The excipient control in each experiment matched the vehicle. Body weight and clinical signs (movement, posture, skin lesions, appearance of fur indicating normal grooming, and behaviors) were recorded following administration at one, four, eight, sixteen, and twenty-four hours. Necropsies were performed at 24 hours following administration of occidiofungin.
Blood and tissue samples from animals dosed at 5 mg/kg of body weight with occidiofungin in 1.5% hydroxy propyl-beta-cylcodextrin suspended in PBS were taken 24 hours following excipient or drug administration. Mice were anesthetized with isofluorane. Blood was then taken from the retroorbital plexus or heart puncture for serum biochemistry assays (alkaline phosphatase, alanine aminotransferase, aspartate aminotransferase, albumin, and blood urea nitrogen) and hematology (white blood cell count and white blood cell differentiation). Body weight was measured immediately before treatment and 24 hours later before the mice were fully anesthetized and fixed in 10% neutral buffered formalin. Histological examination was performed on a portion of each organ by using routine paraffin embedding technique and staining with hematoxylin and eosin (H & E) (See Reference 14). All the sections were examined under light microscopy for pathological changes by a co-author of this paper, who is a board certified veterinary pathologist.

[5] = tested on: Saccharomyces cerevisiae gene deletion mutants; settings: Δycal vs wild-type, Reference 2; cited from earlier work
[6] = Solubility of occidiofungin; format: physicochemical
[7] = tested on: normal human neonatal dermal fibroblasts cell line; experiment: In vitro toxicity screening (CellTiter-Blue cell viability, 48 hours); format: cell-based
Excerpt: as §1

[8] = tested on: yeast cells; settings: low drug concentrations (1 μg/ml, around 833 nM), Reference 2; cited from earlier work
[9] = tested on: wide array of fungi; settings: cited from earlier work
[10] = single IV dose 5 mg/kg, 24 hours
[11] = single IV dose 5 mg/kg, 24 hours, mean, 5 mg/kg

occidiofungin
CC50 ([1]; OVCAR8 ovarian cancer cell line, 48 hours, mean of three independent experiments, read-out: TC50 (the source's name)): 61 nM | activity against the cancer cell lines relative to what has been reported against Candida species ([1]; cancer cell lines OVCAR8, SW1088, Toledo together): ten to twenty-fold higher | CC50 [2]: 70 nM | CC50 [3]: 68 nM | behavioral response at 1 hour and to a lesser extent at 4 hours post i.v. administration ([4]; 5 mg/kg i.v.): more lethargic than excipient treated mice and had ruffled fur | mice behavior by 8, 16, and 24 hour post injection ([4]; 5 mg/kg i.v.): appeared to be normal | histological examination of organ tissues ([4]; 5 mg/kg i.v., 24 hours, esophagus, stomach, small intestine, colon, liver, pancreas, spleen, kidneys, lungs, heart, brain): no histological abnormalities; also recorded: No observable differences | ratio of AST to ALT in all treated mice ([4]; 5 mg/kg i.v., 24 hours, ratio less than one indicative of liver damage): greater than one | average weight loss ([4]; single 5 mg/kg i.v. dose, 24 hours): 6.2% | Hematology: Lymphocytes % [4, 10]: 54 ± 15% | Hematology: Neutrophils % [4, 10]: 43 ± 14% | Hematology: Platelet estimate [4, 10]: 39 ± 21 xK/ul | Hematology: WBC estimate [4, 10]: 4750 ± 1225 | Serum Biochemistry: ALP [4, 10]: 99 ± 34 U/l | Serum Biochemistry: Albumin [4, 10]: 3.1 ± 0.6 g/dL | Serum Biochemistry: BUN [4, 10]: 29.6 ± 5 mg/dL | Weight Change % ([4]; single IV dose 5 mg/kg, 24 hours after administration, mean ± SD): −6.2 ± 9.9% | Serum Biochemistry: ALT (SGPT) [4, 11]: 521 U/l and 521 ± 652 U/l | Serum Biochemistry: AST (SGOT) [4, 11]: 765 U/l and 765 ± 692 U/l | toxicity observed in mice ([4]; single i.v. dose at 5 mg/kg): no significant toxicity | increase in resistance on deletion of the ycal gene [5]: 2 fold | O.D.600 after addition of vehicle to the purified dried drug ([6]; 1.5% hydroxy propyl-beta-cyclodextrin in PBS, suggests the drug went into solution): negligible absorbance difference to vehicle without drug | solubility in aqueous buffers ([6]; aqueous buffers): relatively low | cancer cell lines relative to normal human primary dermal fibroblasts cell line ([7]; TC50 of OVCAR8, SW1088, Toledo vs fibroblasts): approximately eight-fold higher | CC50 ([7]; human fibroblast cell line, 48 hours, mean of three independent experiments, read-out: TC50 (the source's name)): 533 nM | activity relative to bortezomib against the human fibroblast cell line ([7]; occidiofungin vs bortezomib): approximately eight-fold higher | morphological change of yeast cells [8]: appeared to shrink in size | concentrations at which antifungal activity was observed [9]: micromolar to sub micromolar
